Test results: patent US8987207B2, “Peptides which have analgesic effects and which inhibit ASIC channels” (Centre National de la Recherche Scientifique—CNRS, priority 2010, dated 2015)
Bridges are numbered along the chain shown (N, C = ends). Where no end group is shown, it is not given here.

Legend:
[1] = target: T1, rat heteromeric ASIC1a+ASIC3 channels (Rattus norvegicus, UniProt O35240+P55926); conditions: read-out: concentration inhibiting 50% of the current produced by rat heteromeric ASIC1a+ASIC3 channels; cited from earlier work
T1 sequence (P55926 1-526): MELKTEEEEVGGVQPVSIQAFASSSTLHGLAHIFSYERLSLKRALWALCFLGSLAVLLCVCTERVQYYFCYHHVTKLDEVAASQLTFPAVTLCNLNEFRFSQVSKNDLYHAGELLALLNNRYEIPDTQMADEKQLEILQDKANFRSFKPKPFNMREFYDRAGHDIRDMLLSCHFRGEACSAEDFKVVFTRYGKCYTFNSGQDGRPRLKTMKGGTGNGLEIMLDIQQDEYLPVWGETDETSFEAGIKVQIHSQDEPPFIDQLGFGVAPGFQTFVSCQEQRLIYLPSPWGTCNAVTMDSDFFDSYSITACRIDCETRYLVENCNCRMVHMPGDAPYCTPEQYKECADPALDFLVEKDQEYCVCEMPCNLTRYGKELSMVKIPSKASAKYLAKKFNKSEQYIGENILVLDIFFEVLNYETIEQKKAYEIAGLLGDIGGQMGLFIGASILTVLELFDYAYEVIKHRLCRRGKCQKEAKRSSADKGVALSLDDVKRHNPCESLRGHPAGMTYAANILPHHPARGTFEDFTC
T1 sequence (O35240 1-533): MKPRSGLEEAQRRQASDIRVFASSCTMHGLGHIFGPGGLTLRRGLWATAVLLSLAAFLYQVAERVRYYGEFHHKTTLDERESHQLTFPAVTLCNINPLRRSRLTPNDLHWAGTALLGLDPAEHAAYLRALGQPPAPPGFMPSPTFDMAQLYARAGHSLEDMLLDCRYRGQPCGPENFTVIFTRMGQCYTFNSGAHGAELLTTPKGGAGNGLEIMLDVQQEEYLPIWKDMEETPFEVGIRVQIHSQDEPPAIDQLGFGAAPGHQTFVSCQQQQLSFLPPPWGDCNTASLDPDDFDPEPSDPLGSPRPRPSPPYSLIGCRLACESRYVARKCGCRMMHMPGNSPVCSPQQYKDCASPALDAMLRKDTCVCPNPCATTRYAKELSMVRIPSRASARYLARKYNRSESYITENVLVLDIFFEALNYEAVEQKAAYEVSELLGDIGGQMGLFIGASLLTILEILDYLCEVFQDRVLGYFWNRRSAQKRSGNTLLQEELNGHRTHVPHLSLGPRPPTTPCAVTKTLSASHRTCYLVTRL

[2] = rats, cited from earlier work
[3] = Toxicity after intrathecal injection; format: in vivo; conditions: mice
[4] = Accelerating rotarod test (motor activity) after intrathecal injection; format: in vivo; conditions: mice, IT injection, compared with vehicle, ANOVA
Procedure: The effects of the ASICalgin-1 peptide on motor activity were evaluated by means of the accelerating rotarod test. The mice were placed on an axle rotating at four rotations per minute (rpm) which undergoes a constant acceleration of 5 rpm per minute up to 40 rpm. The latency to fall is measured, with a maximum limit of 300 s.

[5] = Toxicity after intracerebroventricular injection; format: in vivo; conditions: mice, ICV injection, even after 3 days
Procedure: The intracerebroventricular (ICV) injection of the ASICalgin-1 peptide was carried out in the third ventricle of the brain of mice (C57B16J, 7- to 11-week-old males) anesthetized with isoflurane (1.5%) using the following stereotaxic coordinates: −2.4 mm under the cortical surface, −0.5 mm in the anterior-posterior axis and +1.6 mm in the mediolateral axis relative to the bregma. The effects of an ICV injection of 5 μl of solution containing […] of ASICalgin-1 (0.34 nmol) were compared with the effects of 5 μl of saline solution vehicle (145 mM NaCl, 5 mM KCl, 2 mM CaCl2, 10 mM HEPES, pH 7.4, 0.05% bovine serum albumin) naxolone, an inhibitor of opioid receptors (especially μ-type), was injected subcutaneously at 2 mg/kg in 50 μl of 0.9% NaCl, ten minutes before the ICV injection of the ASICalgin-1 peptide.

[6] = target: T2, homomeric ASIC1a channels (Homo sapiens, UniProt P78348); conditions: read-out: concentration inhibiting 50% of the current produced by homomeric ASIC1a channels; cited from earlier work
T2 sequence (P78348 1-528): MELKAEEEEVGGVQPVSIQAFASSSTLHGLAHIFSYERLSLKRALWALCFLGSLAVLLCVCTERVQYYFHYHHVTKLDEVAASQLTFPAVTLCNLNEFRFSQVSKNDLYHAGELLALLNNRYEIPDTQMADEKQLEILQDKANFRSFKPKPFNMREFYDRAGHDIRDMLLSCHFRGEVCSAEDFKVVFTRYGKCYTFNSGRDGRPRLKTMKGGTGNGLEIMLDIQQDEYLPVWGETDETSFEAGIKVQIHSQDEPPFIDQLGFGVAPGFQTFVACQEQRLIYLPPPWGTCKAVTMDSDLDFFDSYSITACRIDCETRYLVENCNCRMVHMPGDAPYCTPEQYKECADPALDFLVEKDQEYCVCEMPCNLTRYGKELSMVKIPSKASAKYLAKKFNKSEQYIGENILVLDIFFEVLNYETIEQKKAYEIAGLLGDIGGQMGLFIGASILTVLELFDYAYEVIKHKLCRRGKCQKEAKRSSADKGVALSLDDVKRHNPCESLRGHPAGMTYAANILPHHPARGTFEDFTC

[7] = mice, central injection; cited from earlier work

Substance: APETx2
- IC50 [1]: 2000 nM
- analgesic effect on post-operative pain ([2]; intra-operative application): induces an analgesic effect
- analgesic effect on inflammatory and acidic pain ([2]; peripheral (subcutaneous) injection): induces an analgesic effect

Substance: LKCFQHGKVVTCHRDMKFCYHNTGMPFRNLKLILQGCSSSCSETENNKCCSTDRCNK (disulfide 3-19, 12-37, 41-49, 50-55) [ASICalgin-2]
- toxicity: behavior (motor, balance, apathy, paralysis, convulsion), deaths [3]: induces no modification of behavior

Substance: LKCYQHGKVVTCHRDMKFCYHNTGMPFRNLKLILQGCSSSCSETENNKCCSTDRCNK (disulfide 3-19, 12-37, 41-49, 50-55) [ASICalgin-1]
- effect on motor activity, latency to fall [4]: does not induce any significant effect
- toxicity: behavior (motor, balance, apathy, paralysis, convulsion), deaths [3]: induces no modification of behavior
- toxicity: behavior (motor, balance, apathy, paralysis, convulsion), deaths [5]: induces no modification of behavior

Substance: PcTx1
- IC50 [6]: 1 nM
- analgesic effect [7]: powerful analgesic effect
